In patent EP4782453A1 (Beyang Therapeutics Co., Ltd., priority 2023, dated 2025) one finds IC50 data, which are given here for 22 compounds.

Molecules are shown by their SMILES. pIC50: −log10 of the molar value. Where two headings read alike, the source gives them in different places.

In one experiment the target is T1, Menin-MLL (Homo sapiens, UniProt O00255).
T1 construct: His-Menin (M1-L615 end); purchased BIORTUS BP9210
T1 sequence (O00255 1-615 isoform O00255-1): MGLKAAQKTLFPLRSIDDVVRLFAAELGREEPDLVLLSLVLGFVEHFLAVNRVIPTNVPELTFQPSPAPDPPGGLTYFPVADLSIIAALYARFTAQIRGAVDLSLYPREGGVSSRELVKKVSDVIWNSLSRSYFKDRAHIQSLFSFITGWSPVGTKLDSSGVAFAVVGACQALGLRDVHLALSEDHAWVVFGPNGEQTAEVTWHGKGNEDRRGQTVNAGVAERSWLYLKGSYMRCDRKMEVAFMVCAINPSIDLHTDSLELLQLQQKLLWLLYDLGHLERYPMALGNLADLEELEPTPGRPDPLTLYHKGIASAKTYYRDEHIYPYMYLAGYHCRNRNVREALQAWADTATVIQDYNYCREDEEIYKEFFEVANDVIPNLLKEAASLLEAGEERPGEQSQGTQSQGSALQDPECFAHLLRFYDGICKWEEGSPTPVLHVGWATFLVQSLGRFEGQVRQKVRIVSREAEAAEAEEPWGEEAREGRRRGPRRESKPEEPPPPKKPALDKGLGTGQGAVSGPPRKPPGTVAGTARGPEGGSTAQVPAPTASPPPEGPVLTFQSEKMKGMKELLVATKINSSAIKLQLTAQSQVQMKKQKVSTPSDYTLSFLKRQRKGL
In words: Inhibitory activity against Menin-MLL binding (fluorescence polarization). The note with it: 150 nM His-Menin, 15 nM FITC-MLL, 25°C for 60 min. Put shortly:
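His-Menin (M1-L615, 150 nM) preincubated with compound 15 min at 25 °C in HEPES pH 7.5, 50 mM NaCl, 1 mM DTT, 0.01% BSA, then 15 nM FITC-MLL4-43 peptide added for 60 min at 25 °C. Fluorescence polarization read; IC50 from 4-parameter logistic fit, duplicates.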

Experiment [1] concerns MOLM-13 (carrying MLL-AF9). Briefly: Inhibition of proliferation of human tumor cells (Alamar Blue, 7 days), MOLM-13. It counts as cell-based. The conditions noted are these: Homo sapiens, MOLM-13 cells (carrying MLL-AF9), method calls the value GI50. The source says: Experimental Example 2: Evaluation of Inhibitory Activity of Compounds Against Proliferation of Human Tumor Cells
• Human acute lymphoblastic leukemia cells MV-4-11, purchased from American Type Culture Collection, Catalog Number: CRL-9591; • Human acute myeloid leukemia cells MOLM-13, purchased from COBIOER BIOSCIENCES CO., LTD, Catalog Number: CBP60678; • Human acute myeloid leukemia cells KG-1a, purchased from American Type Culture Collection, Catalog Number: CCL-246.1; • Inverted Microscope, purchased from Olympus Tokyo; • Countess™ Automated Cell Counter, purchased from Invitrogen, Model: C10281; and • Multilabel Reader, purchased from Bio-Tek, Model: Synergy HT.
MV-4-11 cells were cultured in an IMDM medium containing 10% fetal bovine serum, KG-a cells were cultured in an IMDM medium containing 20% fetal bovine serum, or MOLM-13 cells were cultured in an RPMI-1640 medium containing 20% fetal bovine serum, each supplemented with 100 U·mL^-1 penicillin and 100 µg·mL^-1 streptomycin. These cells were cultured at 37°C with 5% CO2. The suspensions of individual cell lines were prepared in their respective media and seeded into 96-well plates at a density of 4,000 cells/well for MV-4-11 and MOLM-13 cells, or 3,000 cells/well for KG-1a cells. On the day of the experiment, a compound stock solution was diluted in a 3-fold or 4-fold gradient using DMSO. Each gradient-diluted stock solution was then further diluted 250-fold with a complete medium to prepare a series of working solutions at different concentrations. Subsequently, 100 µL of working solution (containing a 2-fold concentration series of the test compound) was added to each well, with duplicate wells set up for each concentration.
Seven days after compound addition (on Day 7), an Alamar Blue assay reagent (MCE, HY-111391 / CS-0040317) was added to measure the fluorescence intensity in each well. Wells containing the cells in the growth medium supplemented with 0.1% DMSO (Day 7) served as high-read control wells. The readouts from the wells containing the cells in the growth medium supplemented with 0.1% DMSO on the day of compound addition (Day 0) served as low-reading control well. GraphPad Prism software was used to calculate the concentration required to inhibit 50% of cell proliferation (GI50), which serves as a cell proliferation inhibition activity index.

The mark [2] stands for this setting: fluorescence polarization, read-out: Menin-MLL IC50.

As for `CCN(C(=O)c1cc(F)ccc1-c1cc(C2CN([C@H](CCCN3CCN(C)[C@@H](CO)C3)C(C)C)C2)cn2c(C)ncc12)C(C)C` [Example 506], the pIC50 on Menin-MLL (setting [2]) was 9.05; in experiment [1] (168 h) it was 7.89.

In the case of `CCN1CCN(CCC[C@H](C(C)C)N2CC(c3cc(-c4ccc(F)cc4C(=O)N4CCOC[C@H]4C)c4cnn(C)c4c3)C2)CC1` [Example 359], the pIC50 was 8.22 at Menin-MLL (setting [2]) and 7.18 in experiment [1] (168 h).

Regarding `Cc1ncc2c(-c3ccc(F)cc3C(=O)N3CCOC[C@H]3C)cc(C3CN([C@H](CCCN4CCN(CC(F)(F)F)CC4)C(C)C)C3)cn12` [Example 385], the negative logarithm of the IC50 (pIC50) is 8.33 at Menin-MLL (setting [2]) and 8.09 in experiment [1] (168 h).

As to `CCN(C(=O)c1cc(F)ccc1-c1cc(C2CN([C@H](CCCN3CCN(C(CO)CO)CC3)C(C)C)C2)cc2c1cnn2C)C(C)C` [Example 433, 2-(6-{1-[(3R)-6-[4-(1,3-dihydroxylpropan-2-yl)piperazin-1-yl]-2-methylhexan-3-yl]azacyclobutan-3-yl}-1-methyl-1H-indazol-4-yl)N-ethyl-5-fluoro-N-(isopropyl)benzamide], the values for the negative-log IC50 (pIC50) (at Menin-MLL (setting [2]); in experiment [1] (168 h)) were 8.48 and 7.74, respectively.

Consider `CCN(C(=O)c1cc(F)ccc1-c1cc(C2CN([C@H](CCCN3CCO[C@@H](CO)C3)C(C)C)C2)cn2c(C)ncc12)C(C)C` [Example 451], for which the pIC50 is 8.33 on Menin-MLL (setting [2]) and 7.60 in experiment [1] (168 h).

`CCN(C(=O)c1cc(F)ccc1-c1cc(C2CN([C@H](CN3CCS(=O)(=O)CC3)C(C)C)C2)cn2c(C)ncc12)C(C)C` [Example 441-1, 2-(6-{1-[(2S)-1-(1,1-dioxo-thiomorpholin-4-yl)-3-methylbutan-2-yl]azacyclobutan-3-yl}-3-methylimidazo[1,5-a]pyridin-8-yl)-N-ethyl-5-fluoro-N-(isopropyl)benzamide]: the figures for the pIC50 (on Menin-MLL (setting [2]); in experiment [1] (168 h)) were 7.96 and 7.12, respectively.

For `CCN(C(=O)c1cc(F)ccc1-c1cc(CC2CN([C@H](CCCN3CCN(CCO)CC3)C(C)C)C2)n2c(C)cncc12)C(C)C` [Example 470, N-ethyl-5-fluoro-2-[6-({1-[(3R)-6-[4-(2-hydroxylethyl)piperazin-1-yl]-2-methylhexan-3-yl]azacyclobutan-3-yl}methyl)-4-methylpyrrolo[1,2-a]pyrazin-8-yl]-N-(isopropyl)benzamide], the negative logarithm of the IC50 (pIC50) at Menin-MLL (setting [2]) was 9.05; in experiment [1] (168 h) it was 8.42.

Regarding `CCN(C(=O)c1cc(F)ccc1-c1cc(C2CN(C(CCO)C(C)C)C2)cn2c(C)ncc12)C(C)C` (centres unmarked) [Example 455, N-ethyl-5-fluoro-2-{6-[1-(1-hydroxyl-4-methylpentan-3-yl)azacyclobutan-3-yl]-3-methylimidazo[1,5-a]pyridin-8-yl}-N-(isopropyl)benzamide], the pIC50 on Menin-MLL (setting [2]) was 8.03; in experiment [1] (168 h) it was 7.16.

Regarding `CCN(C(=O)c1cc(F)ccc1-c1cc(C2CN([C@H](CCCN3CCC(C#N)(CO)CC3)C(C)C)C2)cn2c(C)ncc12)C(C)C` [Example 481], the negative-log IC50 (pIC50) at Menin-MLL (Menin-MLL IC50, fluorescence polarization) was 8.72; in experiment [1] (MOLM-13, 168 h), 8.26.

Regarding `CCN(C(=O)c1cc(F)ccc1-c1cc(C2CN([C@H](CCCN3CCN(C[C@H](O)CO)CC3)C(C)C)C2)cc2c1cnn2C)C(C)C` [Example 412], the negative logarithm of the IC50 (pIC50) at Menin-MLL (setting [2]) is 8.17; in experiment [1] (168 h), 7.41.

As for `CCN(C(=O)c1cc(F)ccc1-c1cc(OC2CN(C(CCCN3CCN(CCO)CC3)C(C)C)C2)n2c(C)cncc12)C(C)C` (centres unmarked) [Example 488, N-ethyl-5-fluoro-2-{6-[(1-{6-[4-(2-hydroxyethyl)piperazin-1-yl]-2-methylhexan-3-yl}azacyclobutan-3-yl)oxy]-4-methylpyrrolo[1,2-a]pyrazin-8-yl}-N-(isopropyl)benzamide], the figures for the pIC50 (at Menin-MLL (setting [2]); in experiment [1] (168 h)) were 8.47 and 7.72, respectively.

On to `CCN(C(=O)c1cc(F)ccc1-c1cc(C2CN(C(CC3COCCO3)C(C)C)C2)cn2c(C)ncc12)C(C)C` (centres unmarked) [Example 445, 2-(6-{1-[1-(1,4-dioxane-2-yl)-3-methylbutan-2-yl]azacyclobutan-3-yl}-3-methylimidazo[1,5-a]pyridin-8-yl)-N-ethyl-5-fluoro-N-(isopropyl)benzamide], for which the negative-log IC50 (pIC50) at Menin-MLL (setting [2]) was 7.70; in experiment [1] (168 h), 7.17.

On to `CCN(C(=O)c1cc(F)ccc1-c1cc(C2CN([C@H](CCCN3CCOC[C@@H]3CO)C(C)C)C2)cn2c(C)ncc12)C(C)C` [Example 452], for which the values for the pIC50 (on Menin-MLL (setting [2]); in experiment [1] (168 h)) were 8.28 and 7.41, respectively.

On to `CCN(C(=O)c1cc(F)ccc1-c1cc(C2CN([C@H](CCCN3CCC(NS(=O)(=O)CC)CC3)C(C)C)C2)cn2c(C)ncc12)C(C)C` [Example 408, 2-(6-{1-[(3R)-6-(4-ethanesulfonamidopiperidin-1-yl)-2-methylhexan-3-yl]azacyclobutan-3-yl}-3-methylimidazo[1,5-a]pyridin-8-yl)-N-ethyl-5-fluoro-N-(isopropyl)benzamide], for which the results for the negative-log IC50 (pIC50) (at Menin-MLL (setting [2]); in experiment [1] (168 h)) were 8.77 and 8.38, respectively.

`Cc1ncc2c(-c3ccc(F)cc3C(=O)N(CC(F)F)C(C)C)cc(C3CN([C@H](CCCN4CCN(CCO)CC4)C(C)C)C3)cn12` [Example 459-1, N-(2,2-difluoroethyl)-5-fluoro-2-(6-{1-[(3R)-6-[4-(2-hydroxylethyl)piperazin-1-yl]-2-methylhexan-3-yl]azacyclobutan-3-yl}-3-methyl-imidazo[1,5-a]pyridin-8-yl)-N-(isopropyl)benzamide]: the negative-log IC50 (pIC50) on Menin-MLL (setting [2]) was 8.72; in experiment [1] (168 h), 8.33.

As for `Cc1nc(F)c2c(-c3ccc(F)cc3C(=O)N3CCOC[C@H]3C)cc(C3CN([C@H](CCCN4C5CC4CN(C)C5)C(C)C)C3)cn12` [Example 384], the values for the pIC50 (at Menin-MLL (setting [2]); in experiment [1] (168 h)) were 8.57 and 8.39, respectively.

On to `CCN(C(=O)c1cc(F)ccc1-c1cc(C2CN([C@H](CCCN3CCN(CCO)CC3)C(C)C)C2)cc2c1cnn2C)C(C)C` [Example 400-2], for which the pIC50 was 8.43 at Menin-MLL (setting [2]) and 7.92 in experiment [1] (168 h).

For the compound `CCN(C(=O)c1cc(F)ccc1-c1cc(C2CN([C@H](CCCN3CCN(CCC#N)CC3)C(C)C)C2)cn2c(C)ncc12)C(C)C` [Example 489], the pIC50 was 8.70 at Menin-MLL (setting [2]) and 8.23 in experiment [1] (168 h).

For the compound `Cc1nc(F)c2c(-c3ccc(F)cc3C(=O)N3CCOC[C@H]3C)cc(C3CN([C@H](CCCN4CCN(CCF)CC4)C(C)C)C3)cn12` [Example 361], the negative logarithm of the IC50 (pIC50) is 8.28 on Menin-MLL (setting [2]) and 8.48 in experiment [1] (168 h).

With `CCN(C(=O)c1cc(F)ccc1-c1cc(C2CN([C@H](CN3CCN(C[C@@H](O)CO)CC3)C(C)C)C2)cn2c(C)ncc12)C(C)C` [Example 429], the pIC50 at Menin-MLL (setting [2]) was 8.59; in experiment [1] (168 h), 7.60.

Regarding `CCN(C(=O)c1cc(F)ccc1-c1cc(C2CN([C@H](CCCN3CCN(C[C@@H](O)CO)CC3)C(C)C)C2)cc2c1cnn2C)C(C)C` [Example 413], the pIC50 is 8.16 on Menin-MLL (setting [2]) and 7.35 in experiment [1] (168 h).

As to `Cc1ncc2c(-c3ccc(F)cc3C(=O)N(C(C)C)C(C)C)cc(C3CN([C@H](CCCN4CCN(CCO)CC4)C(C)C)C3)cn12` [Example 463, 5-fluoro-2-(6-{1-[(3R)-6-[4-(2-hydroxylethyl)piperazin-1-yl]-2-methylhexan-3-yl]azacyclobutan-3-yl}-3-methyl-imidazo[1,5-a]pyridin-8-yl)-N,N-di(isopropyl)benzamide], the figures for the pIC50 (on Menin-MLL (setting [2]); in experiment [1] (168 h)) were 8.64 and 8.37, respectively.
